Measurements published in patent US20150307461A1, “ANTIVIRAL COMPOUNDS” (priority 2012, published 2015).

Key:
Test in all cases: microbe, parasite or virus in culture
[1] = test system: Pseudotyped HCV GT1b particles (HCVpp); assay type: cell-based, HCV GT1b Con1 strain; settings: Hepatitis C virus, 72 h, read-out: HCVpp GT-1b (EC50, μM)
[2] = test system: pseudotyped VSV G particles (VSVpp); assay type: cell-based; settings: Vesicular stomatitis virus, 72 h, read-out: VSVpp (EC50, μM)
[3] = test system: Pseudotyped HCV GT1a particles (HCVpp); assay type: cell-based, HCV GT1a H77 strain; settings: Hepatitis C virus, 72 h, read-out: HCVpp GT-1a (EC50, μM)

Structure (SMILES)	EC50 [1] [µM]	EC50 [2] [µM]	EC50 [3] [µM]
N#Cc1c(Cl)cc(Nc2n[nH]c(N)n2)cc1Cl [Compound I-2, 4-(5-Amino-1H-[1,2,4]triazol-3-ylamino)-2,6-dichloro-benzonitrile]	0.277	64.6	0.009
Nc1nc(Nc2cc(Cl)c(I)c(Cl)c2)n[nH]1 [Compound I-3, N^3-(3,5-Dichloro-4-iodo-phenyl)-1H-[1,2,4]triazole-3,5-diamine]	0.386	32.7	0.012
Nc1nc(Nc2cccc(S(=O)(=O)C(F)(F)F)c2)n[nH]1 [Compound I-4, N^3-(3-Trifluoromethanesulfonyl-phenyl)-1H-[1,2,4]triazole-3,5-diamine]	0.823	100	0.412
CC(C)(C)c1cccc(Nc2n[nH]c(N)n2)c1 [Compound I-6, N^3-(3-tert-Butyl-phenyl)-1H-[1,2,4]triazole-3,5-diamine]	1.59	100	0.948
Nc1nc(Nc2ccc(S(=O)(=O)C(F)(F)F)c(Cl)c2)n[nH]1 [Compound I-7, N*3*-(3-Chloro-4-trifluoromethanesulfonyl-phenyl)-1H-[1,2,4]triazole-3,5-diamine]	0.91	100	1.28
Nc1nc(Nc2ccc([N+](=O)[O-])c(Cl)c2)n[nH]1 [Compound I-8, N*3*-(3-Chloro-4-nitro-phenyl)-1H-[1,2,4]triazole-3,5-diamine]	1.15	98.1	0.141
C#Cc1ccc(Nc2n[nH]c(N)n2)cc1Cl [Compound I-9, N*3*-(3-Chloro-4-ethynyl-phenyl)-1H-[1,2,4]triazole-3,5-diamine]	3.08	45.5	0.161
Nc1nc(Nc2ccc(C(F)(F)F)c(Cl)c2)n[nH]1 [Compound I-10, N*3*-(3-Chloro-4-trifluoromethyl-phenyl)-1H-[1,2,4]triazole-3,5-diamine]	5.14	100	0.368
Nc1nc(Nc2cc(Cl)c(Cl)c(Cl)c2)n[nH]1 [Compound I-11, N*3*-(3,4,5-Trichloro-phenyl)-1H-[1,2,4]triazole-3,5-diamine]	4.68	100	0.166
N#Cc1ccc(Nc2n[nH]c(N)n2)cc1Cl [Compound I-12, 4-(5-Amino-1H-[1,2,4]triazol-3-ylamino)-2-chloro-benzonitrile]	4.19	100	0.335
Nc1nc(Nc2ccc(Cl)c([N+](=O)[O-])c2)n[nH]1 [Compound I-13, N*3*-(4-Chloro-3-nitro-phenyl)-1H-[1,2,4]triazole-3,5-diamine]	4.85	100	0.539
Nc1nc(Nc2ccc(C#Cc3ccccc3)c(Cl)c2)n[nH]1 [Compound I-14, N*3*-(3-Chloro-4-phenylethynyl-phenyl)-1H-[1,2,4]triazole-3,5-diamine]	32.7	100	5.34
Nc1nc(Nc2cccc(Br)c2)n[nH]1 [Compound I-15, N*3*-(3-Bromo-phenyl)-1H-[1,2,4]triazole-3,5-diamine]	18.1	100	1.41
CC(C)(C)c1cc(Nc2n[nH]c(N)n2)ccc1C#N [Compound I-16, 4-(5-Amino-1H-[1,2,4]triazol-3-ylamino)-2-tert-butyl-benzonitrile]	16.1	100	5.34
Nc1nc(Nc2ccc(S(=O)(=O)C(F)(F)F)cc2)n[nH]1 [Compound I-17, N*3*-(4-Trifluoromethanesulfonyl-phenyl)-1H-[1,2,4]triazole-3,5-diamine]	14.2	100	12.6
Nc1nc(Nc2ccc3ccccc3c2)n[nH]1 [Compound I-18, N*3*-Naphthalen-2-yl-1H-[1,2,4]triazole-3,5-diamine]	27.5	100	2.95
CC(C)(C)c1cc(Nc2n[nH]c(N)n2)cc(C(C)(C)C)c1 [Compound I-19, N*3*-(3,5-Di-tert-butyl-phenyl)-1H-[1,2,4]triazole-3,5-diamine]	56.8	87.8	44.7
CS(=O)(=O)c1ccc(Nc2n[nH]c(N)n2)cc1 [Compound I-20, N*3*-(4-Methanesulfonyl-phenyl)-1H-[1,2,4]triazole-3,5-diamine]	100	100	90.6
CS(=O)(=O)c1cccc(Nc2n[nH]c(N)n2)c1 [Compound I-21, N*3*-(3-Methanesulfonyl-phenyl)-1H-[1,2,4]triazole-3,5-diamine]	41.4	100	12.6
CNS(=O)(=O)c1ccc(Nc2n[nH]c(N)n2)cc1 [Compound I-22, 4-(5-Amino-1H-[1,2,4]triazol-3-ylamino)-N-methyl-benzenesulfonamide]	100	100	100

Structure (SMILES)	EC50 [1] [µM]	EC50 [2] [µM]	EC50 [3] [µM]
Nc1nc(Nc2ccc(C(=O)N3CCOCC3)cc2)n[nH]1 [Compound I-23, [4-(5-Amino-1H-[1,2,4]triazol-3-ylamino)-phenyl]-morpholin-4-yl-methanone]	100	100	100
CN(C)C(=O)c1ccc(Nc2n[nH]c(N)n2)cc1 [Compound I-24, 4-(5-Amino-1H-[1,2,4]triazol-3-ylamino)-N,N-dimethyl-benzamide]	100	100	100
Nc1nc(Nc2ccc(S(N)(=O)=O)cc2)n[nH]1 [Compound I-25, 4-(5-Amino-1H-[1,2,4]triazol-3-ylamino)-benzenesulfonamide]	100	100	86.4
CN(C)S(=O)(=O)c1ccc(Nc2n[nH]c(N)n2)cc1 [Compound I-26, 4-(5-Amino-1H-[1,2,4]triazol-3-ylamino)-N,N-dimethyl-benzenesulfonamide]	100	100	100
N#Cc1ccc(Nc2n[nH]c(N)n2)cc1C1CC1 [Compound I-35, 4-(5-Amino-1H-1,2,4-triazol-3-ylamino)-2-cyclopropylbenzonitrile]	1.73	62.8	0.34
Nc1nc(Nc2cccc(Cl)c2)n[nH]1 [Compound I-36, N*3*-(3-Chloro-phenyl)-1H-[1,2,4]triazole-3,5-diamine]	28.6	100	1.84
Nc1nc(Nc2ccc(OCc3ccccc3)c(Cl)c2)n[nH]1 [Compound I-37, N*3*-(4-Benzyloxy-3-chloro-phenyl)-1H-[1,2,4]triazole-3,5-diamine]	13.4	33.3	0.92
Cc1c(Cl)cc(Nc2n[nH]c(N)n2)cc1Cl [Compound I-38, N*3*-(3,5-Dichloro-4-methyl-phenyl)-1H-[1,2,4]triazole-3,5-diamine]	0.75	79.4	0.023
Nc1nc(Nc2cc(Cl)c(C3CC3)c(Cl)c2)n[nH]1 [Compound I-39]	0.574	37.9	0.015
Nc1nc(Nc2cc(Cl)c(Br)c(C(F)(F)F)c2)n[nH]1 [Compound I-42, N3-(4-bromo-3-chloro-5-(trifluoromethyl)phenyl)-1H-1,2,4-triazole-3,5-diamine]	0.404		0.081
N#Cc1c(Cl)cc(Nc2n[nH]c(N)n2)cc1C(F)(F)F [Compound I-43, 4-(5-amino-1H-1,2,4-triazol-3-ylamino)-2-chloro-6-(trifluoromethyl)benzonitrile]	0.146	30.3	0.038
N#Cc1cc(Cl)cc(Nc2n[nH]c(N)n2)c1 [Compound I-48, 3-(5-Amino-1H-[1,2,4]triazol-3-ylamino)-5-chloro-benzonitrile]	5.65	100	0.558
Nc1nc(Nc2cc(Cl)cc(C(F)(F)F)c2)n[nH]1 [Compound I-50, N^3-(3-Chloro-5-trifluoromethyl-phenyl)-1H-[1,2,4]triazole-3,5-diamine]	1.1	100	0.094
Nc1nc(Nc2ccc(Cl)c(C(F)(F)F)c2)n[nH]1 [Compound I-51, N^3-(4-Chloro-3-trifluoromethyl-phenyl)-1H-[1,2,4]triazole-3,5-diamine]	3.44	53.7	0.475
Nc1nc(Nc2cccc(OC(F)(F)F)c2)n[nH]1 [Compound I-52, N^3-(3-Trifluoromethoxy-phenyl)-1H-[1,2,4]triazole-3,5-diamine]	12.6	100	2.39
CC(C)c1cccc(Nc2n[nH]c(N)n2)c1 [Compound I-56, N^3-(3-Isopropyl-phenyl)-1H-[1,2,4]triazole-3,5-diamine]	19.6	100	8.36
Nc1nc(Nc2cc(F)cc(C(F)(F)F)c2)n[nH]1 [Compound I-57, N^3-(3-Fluoro-5-trifluoromethyl-phenyl)-1H-[1,2,4]triazole-3,5-diamine]	0.624	100	0.146
Nc1nc(Nc2cc(Cl)c(F)c(C(F)(F)F)c2)n[nH]1 [Compound I-60, N^3-(3-Chloro-4-fluoro-5-trifluoromethyl-phenyl)-1H-[1,2,4]triazole-3,5-diamine]	0.489	33.3	0.071
Nc1nc(Nc2cccc(S(F)(F)(F)(F)F)c2)n[nH]1 [Compound I-70, N*3*-(3-pentafluorosulfur-phenyl)-1H-[1,2,4]triazole-3,5-diamine]	1.1	100	0.152
CS(=O)(=O)c1ccc(Nc2n[nH]c(N)n2)cc1Cl [Compound I-77, N^3-(3-Chloro-4-methanesulfonyl-phenyl)-1H-[1,2,4]triazole-3,5-diamine]	20.4		1.59
